Assay results from patent US10421820B2, “Bruton's tyrosine kinase as anti-cancer drug target” (The Research Foundation for The State University of New York, priority 2008, dated 2019).
“Also recorded” adds a separate entry of the source.

Columns and labels:
[1] = tested on: BTK-A and BTK-C proteins; test: BTK Tyr223 auto-phosphorylation, anti-Flag IP and Western blot in BT474 cells over-expressing BTK-A-flag or BTK-C-flag; assay type: cell-based, human
[2] = tested on: BT474 cells; test: Cleaved caspase-3 apoptosis assay in BT474 cells; assay type: cell-based, human
Method: For high-throughput experiments, cells grown on 96-well plates were washed once with 1×PBS, fixed with 2.5% formaldehyde and stained with Hoechst 33342 (Molecular Probes-Invitrogen). Cell images were acquired using an In Cell Analyzer 1000 (GE Healthcare) high content imaging system, with a 20× objective. At least 50 fields were imaged per single experiment. Cell counts and statistics were then performed using the In Cell Investigator 3.4 high-content image analysis software (GE Healthcare). Apoptosis was detected by cleaved Caspase-3 after 48 h to 96 h of shRNA treatments. […] Control cells were treated with DMSO. For the cleaved caspase-3 assay, cells were fixed after treatment with 2.5% formaldehyde, washed with 1×PBS, permeabilized with 0.1% Triton-X 100 (Fisher Chemicals), blocked with 3% normal goat serum (Sigma-Aldrich), incubated with a 1:50-1:200 dilution of the primary antibody, washed with 1×PBS, incubated with a 1:800 dilution of the secondary antibody, washed again with 1×PBS and finally stained with Hoechst 33342 (Molecular Probes-Invitrogen). Cells were imaged by the In Cell Analyzer 1000 (GE Healthcare) or by a Leica TCS SP5 confocal microscope system (Leica Microsystems). At least 500 cells were counted for cleaved Caspase-3. […]

[3] = tested on: MCF-7 and MDA-MB-361 cell lines; test: 2-NBDG glucose uptake in breast cancer cell lines; assay type: cell-based, human; conditions: breast cancer cell lines that express BTK-C; LFM-A13 for 24 hours
Method: (§1) FIG. 15A-15D. BTK-C promotes glucose uptake. […] Immunofluorescence pictures were taken in INCELL-1000; (15d) Fluorescence intensity was quantified in right. […] (15a) The effect of BTK-C on glucose uptake in breast cancer cell lines. MCF-7 and MDA-MB-361 cell lines were treated as in (15c). (15b) Fluorescence intensity shown at right panel, *p<0.01.

[4] = tested on: 10A-BTK-C cells; test: 2-NBDG glucose uptake in MCF-10A cells over-expressing BTK-C; assay type: cell-based, human; conditions: LFM-A13 for 24 hours
Method: as §1

[5] = tested on: MCF-10A cells over-expressing BTK-C; conditions: 35 μM LFM-A13 for 24
[6] = tested on: HER2+ breast cancer cells; test: Growth factor-driven lapatinib resistance in HER2+ breast cancer cells (NRG, EGF); assay type: cell-based, human
[7] = tested on: BTK-C-flag protein; test: BTK-C-flag protein knockdown by immunoblot in HEK 293T cells with BTK-C specific siRNAs; assay type: cell-based, human; conditions: transfected HEK 293T cells
Method: (§2) FIG. 12A-12D. The BTK-C gene produces an 80 kD product. (12a) A schematic representation showing the domains of the BTK-A and predicted BTK-C protein. (12b) Total lysate from breast lines and Namalwa B-cells subjected to immunoblotting and probed with an anti-BTK antibody (BD Transduction Laboratory, 611116). (12c) HEK293 cells co-transfected with a BTK-C flag vector and either BTK-C siRNAs or Non-Target siRNA. Total lysate was prepared 96 hrs post transfection and was used for immunoblotting with anti-Flag antibody. (12d) BT474 cells were transfected with two BTK-C specific siRNAs, non-target siRNA as a control and co-transfected with GFP to mark transfected cells. Transfected cells were counted at 24 h and 96 h and the 96 hr to 24 hr ratio was calculated and expressed as % of the control.

[8] = tested on: BT474 cells; test: BT474 viability after BTK-C specific siRNAs (GFP-marked cell counts, 96 h to 24 h ratio); assay type: cell-based, human
Method: as §2

[9] = tested on: SKBR3 xenograft; test: SKBR3 xenograft tumor growth in NOD/SCID mice (mammary fat pad injection); assay type: in vivo; conditions: 12 mg/kg, day 28, p<0.01
[10] = tested on: MDA-MB-231 cells; test: MDA-MB-231 tail vein metastasis model in NOD/SCID mice; assay type: in vivo; conditions: 12 mg/kg per day, oral
Method: FIG. 24A-24D. […] (24A) 10^6 MDA-MB-231 cells in 100 μl PBS were injected into the tail vein of 4-5 week old female NOD/SCID mice (Jackson Labs). Injected animals were randomly assigned to control or experimental groups. Starting at time of tail vein injection, mice were treated with vehicle or ibrutinib (12 mg/kg per day, oral). At end point, mice were euthanized and bones and organs collected for histological analysis. Note that all bone metastases in control groups led to the development of paralysis (5/16, n=16 per group). […] Thin section of a tumor arising in an untreated control animal.
More specifically, 10^6 MDA-MB-231 (Her2-) cells in 100 μl PBS were injected into the tail vein of 4-5 week old female NOD/SCID mice (Jackson Labs). Injected animals were randomly assigned to control or experimental groups. Starting at time of tail vein injection, mice were treated with vehicle or ibrutinib (12 mg/kg per day, oral). At end point, mice were euthanized then bones and organs collected for histological analysis. Note that bone metastases in control groups led to the development of paralysis (5/16, n=16 per group).

[11] = tested on: SK-Br-3 Her2/neu positive breast cancer cells; test: SKBR3 cell number after 72 hours with or without EGF; assay type: cell-based, human; conditions: 50 ng/ml EGF
[12] = tested on: HER2, AKT and ERK phosphorylation; test: Immunoblots of HER2, AKT and ERK phosphorylation in SKbr3 cells with or without EGF; assay type: cell-based, human; conditions: 1 μM, EGF 50 ng/ml, 3 hours

For `C/C(O)=C(\C#N)C(=O)Nc1cc(Br)ccc1Br` [LFM-A13], the “phosphorylation of both the BTK-A and BTK-C proteins” value ([1]; 35 μM LFM-A13 for 48 h) was “significantly impedes phosphorylation”, the “phosphorylation of BTK-A and BTK-C proteins (pY223)” value ([1]; 100 μM LFM-A13 for 45 mins) was “severely impeded phosphorylation; also recorded: reduces phosphorylation of BTK” and the “increase of apoptosis levels compared to control” value ([2]; 25 uM LFM-A13, BT474 cells) was 8%. For the same compound, the “increase of apoptosis levels compared to control” value ([2]; 35 μM LFM-A13, BT474 cells, 48 h) was “six fold”, the “glucose uptake (2-NBDG fluorescence)” value [3] was “inhibits glucose uptake” and the “glucose uptake (2-NBDG fluorescence)” value [4] was “inhibited”. The “acquired resistance to Doxorubicin (1 μM)” value [5] was “abolishes the acquired resistance to Doxorubicin”.
With `C=CC(=O)Nc1cccc(Nc2nc(Nc3ccc(OCCOC)cc3)ncc2F)c1` [AVL-292] the EGFR family activation [6] was “has no effect on EGFR family activation” and the “NRG- and EGF-dependent growth factor-driven resistance to lapatinib” value [6] was “prevents NRG- and EGF-dependent growth factor-driven resistance to lapatinib”.
“siRNA2: BTK-C specific siRNA, sense SEQ ID NO: 68, antisense SEQ ID NO: 69 (sense CAACAAAUGGUUAUUGGAUUU; antisense AUCCAAUAACCAUUUGUUGUU; chemistry not given here; listed as Homo sapiens)” was tested, and the BTK-C-flag protein expression [7] was “reduce BTK-C-flag protein expression” and the “viability of BT474 cells” value [8] was “decrease the viability”.
With `C=CC(=O)N1CCC[C@@H](n2nc(-c3ccc(Oc4ccccc4)cc3)c3c(N)ncnc32)C1` [Ibrutinib] the “tumor volumes smaller than vehicle control” value [9] was 45% and the “decrease of non-lung metastases” value [10] was 3 fold.
For `CS(=O)(=O)CCNCc1ccc(-c2ccc3ncnc(Nc4ccc(OCc5cccc(F)c5)c(Cl)c4)c3c2)o1` [Lapatinib], the “effect of EGF treatment on drug activity (cell number)” value [11] was “EGF treatment counteracts lapatinib to a much larger degree than PCI-32765” and the “ERK activation in the presence of EGF” value [12] was “EGF counteracts lapatinib's effect, causing ERK re-activation”.
